In the supplement of paper PMC10307832:

How the values were obtained:
Assay in all cases: relative viability (nuclei count vs DMSO), 5 days (fraction); higher = more cells survive
ABC-1 = tested on: ABC-1
Method in brief: (§1)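 Nuclei were stained with Hoechst during a one-step fixation (final 0.05% Triton X-100, 1% formaldehyde, 1 ug/ml Hoechst) carried out 5 days after dosing, then counted on 4× images. The cells, lung cancer lines in 1536-well plates, had been dosed by pin tool the day after seeding with one drug alone or a fixed anchor-drug dose plus five library-drug doses (not always all listed) in √10 steps. Relative viability is the nuclei count in treated wells divided by that in vehicle wells, and each value is the median of duplicate plates.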

CAL-12T = tested on: CAL-12T
Method in brief: as §1

ChaGo-K-1 = tested on: ChaGo-K-1
Method in brief: as §1

HCC-366 = tested on: HCC-366
Method in brief: as §1

HCC-78 = tested on: HCC-78
Method in brief: as §1

LC-2-ad = tested on: LC-2-ad
Method in brief: as §1

LOU-NH91 = tested on: LOU-NH91
Method in brief: as §1

LU99A = tested on: LU99A
Method in brief: as §1

NCI-H1395 = tested on: NCI-H1395
Method in brief: as §1

NCI-H1651 = tested on: NCI-H1651
Method in brief: as §1

NCI-H1755 = tested on: NCI-H1755
Method in brief: as §1

NCI-H1793 = tested on: NCI-H1793
Method in brief: as §1

NCI-H1944 = tested on: NCI-H1944
Method in brief: as §1

NCI-H2087 = tested on: NCI-H2087
Method in brief: as §1

NCI-H2170 = tested on: NCI-H2170
Method in brief: as §1

NCI-H2228 = tested on: NCI-H2228
Method in brief: as §1

NCI-H2405 = tested on: NCI-H2405
Method in brief: as §1

NCI-H3122 = tested on: NCI-H3122
Method in brief: as §1

NCI-H460 = tested on: NCI-H460
Method in brief: as §1

PC-3 [JPC-3] = tested on: PC-3 [JPC-3]
Method in brief: as §1

RERF-LC-KJ = tested on: RERF-LC-KJ
Method in brief: as §1

UMC-11 = tested on: UMC-11
Method in brief: as §1

## CC(=O)O[C@@]12CO[C@@H]1C[C@H](O)[C@@]1(C)C(=O)[C@H](O)C3=C(C)[C@@H](OC(=O)[C@H](O)[C@@H](NC(=O)OC(C)(C)C)c4ccccc4)C[C@@](O)([C@@H](OC(=O)c4ccccc4)[C@H]21)C3(C)C [Docetaxel] + Cc1nc(Nc2ncc(C(=O)Nc3c(C)cccc3Cl)s2)cc(N2CCN(CCO)CC2)n1 [Dasatinib] (partner 0.075 µM)
ABC-1; first compound 0.0002 µM
  relative viability: 0.533
ABC-1; first compound 0.000632 µM
  relative viability: 0.434
ABC-1; first compound 0.002 µM
  relative viability: 0.388
ABC-1; first compound 0.006325 µM
  relative viability: 0.36
ABC-1; first compound 0.02 µM
  relative viability: 0.252
CAL-12T; first compound 0.0002 µM
  relative viability: 0.412
CAL-12T; first compound 0.000632 µM
  relative viability: 0.192
CAL-12T; first compound 0.002 µM
  relative viability: 0.137
CAL-12T; first compound 0.006325 µM
  relative viability: 0.0909
CAL-12T; first compound 0.02 µM
  relative viability: 0.0651
ChaGo-K-1; first compound 0.0002 µM
  relative viability: 0.486
ChaGo-K-1; first compound 0.000632 µM
  relative viability: 0.429
ChaGo-K-1; first compound 0.002 µM
  relative viability: 0.404
ChaGo-K-1; first compound 0.006325 µM
  relative viability: 0.257
ChaGo-K-1; first compound 0.02 µM
  relative viability: 0.132
HCC-366; first compound 0.0002 µM
  relative viability: 0.569
HCC-366; first compound 0.000632 µM
  relative viability: 0.255
HCC-366; first compound 0.002 µM
  relative viability: 0.119
HCC-366; first compound 0.006325 µM
  relative viability: 0.0384
HCC-366; first compound 0.02 µM
  relative viability: 0.0228
HCC-78; first compound 0.0002 µM
  relative viability: 0.352
HCC-78; first compound 0.000632 µM
  relative viability: 0.3
HCC-78; first compound 0.002 µM
  relative viability: 0.235
HCC-78; first compound 0.006325 µM
  relative viability: 0.248
HCC-78; first compound 0.02 µM
  relative viability: 0.3
LC-2-ad; first compound 0.0002 µM
  relative viability: 0.362
LC-2-ad; first compound 0.000632 µM
  relative viability: 0.38
LC-2-ad; first compound 0.002 µM
  relative viability: 0.28
LC-2-ad; first compound 0.006325 µM
  relative viability: 0.207
LOU-NH91; first compound 0.0002 µM
  relative viability: 0.553
LOU-NH91; first compound 0.000632 µM
  relative viability: 0.533
LOU-NH91; first compound 0.002 µM
  relative viability: 0.345
LOU-NH91; first compound 0.006325 µM
  relative viability: 0.304
LOU-NH91; first compound 0.02 µM
  relative viability: 0.247
LU99A; first compound 0.0002 µM
  relative viability: 0.588
LU99A; first compound 0.000632 µM
  relative viability: 0.372
LU99A; first compound 0.002 µM
  relative viability: 0.285
LU99A; first compound 0.006325 µM
  relative viability: 0.277
NCI-H1395; first compound 0.0002 µM
  relative viability: 0.439
NCI-H1395; first compound 0.000632 µM
  relative viability: 0.469
NCI-H1395; first compound 0.002 µM
  relative viability: 0.402
NCI-H1395; first compound 0.006325 µM
  relative viability: 0.327
NCI-H1395; first compound 0.02 µM
  relative viability: 0.272
NCI-H1651; first compound 0.0002 µM
  relative viability: 0.338
NCI-H1651; first compound 0.000632 µM
  relative viability: 0.236
NCI-H1651; first compound 0.002 µM
  relative viability: 0.119
NCI-H1651; first compound 0.006325 µM
  relative viability: 0.0789
NCI-H1651; first compound 0.02 µM
  relative viability: 0.0711
NCI-H1755; first compound 0.0002 µM
  relative viability: 0.385
NCI-H1755; first compound 0.000632 µM
  relative viability: 0.359
NCI-H1755; first compound 0.002 µM
  relative viability: 0.306
NCI-H1755; first compound 0.006325 µM
  relative viability: 0.286
NCI-H1755; first compound 0.02 µM
  relative viability: 0.222
NCI-H1793; first compound 0.0002 µM
  relative viability: 0.351
NCI-H1793; first compound 0.000632 µM
  relative viability: 0.345
NCI-H1793; first compound 0.002 µM
  relative viability: 0.279
NCI-H1793; first compound 0.006325 µM
  relative viability: 0.175
NCI-H1793; first compound 0.02 µM
  relative viability: 0.16
NCI-H1944; first compound 0.0002 µM
  relative viability: 0.216
NCI-H1944; first compound 0.000632 µM
  relative viability: 0.228
NCI-H1944; first compound 0.002 µM
  relative viability: 0.204
NCI-H1944; first compound 0.006325 µM
  relative viability: 0.178
NCI-H1944; first compound 0.02 µM
  relative viability: 0.105
NCI-H2087; first compound 0.0002 µM
  relative viability: 0.809
NCI-H2087; first compound 0.000632 µM
  relative viability: 0.371
NCI-H2087; first compound 0.002 µM
  relative viability: 0.171
NCI-H2087; first compound 0.006325 µM
  relative viability: 0.139
NCI-H2087; first compound 0.02 µM
  relative viability: 0.102
NCI-H2170; first compound 0.0002 µM
  relative viability: 0.6
NCI-H2170; first compound 0.000632 µM
  relative viability: 0.574
NCI-H2170; first compound 0.002 µM
  relative viability: 0.428
NCI-H2170; first compound 0.006325 µM
  relative viability: 0.141
NCI-H2170; first compound 0.02 µM
  relative viability: 0.14
NCI-H2228; first compound 0.0002 µM
  relative viability: 0.429
NCI-H2228; first compound 0.000632 µM
  relative viability: 0.151
NCI-H2228; first compound 0.002 µM
  relative viability: 0.12
NCI-H2228; first compound 0.006325 µM
  relative viability: 0.146
NCI-H2228; first compound 0.02 µM
  relative viability: 0.0836
NCI-H2405; first compound 0.0002 µM
  relative viability: 0.2
NCI-H2405; first compound 0.000632 µM
  relative viability: 0.178
NCI-H2405; first compound 0.002 µM
  relative viability: 0.199
NCI-H2405; first compound 0.006325 µM
  relative viability: 0.149
NCI-H2405; first compound 0.02 µM
  relative viability: 0.14
NCI-H3122; first compound 0.0002 µM
  relative viability: 0.822
NCI-H3122; first compound 0.000632 µM
  relative viability: 0.694
NCI-H3122; first compound 0.002 µM
  relative viability: 0.508
NCI-H3122; first compound 0.006325 µM
  relative viability: 0.102
NCI-H3122; first compound 0.02 µM
  relative viability: 0.078
NCI-H460; first compound 0.0002 µM
  relative viability: 0.457
NCI-H460; first compound 0.000632 µM
  relative viability: 0.44
NCI-H460; first compound 0.002 µM
  relative viability: 0.089
NCI-H460; first compound 0.006325 µM
  relative viability: 0.0266
NCI-H460; first compound 0.02 µM
  relative viability: 0.0131
PC-3 [JPC-3]; first compound 0.0002 µM
  relative viability: 0.94
PC-3 [JPC-3]; first compound 0.000632 µM
  relative viability: 0.954
PC-3 [JPC-3]; first compound 0.002 µM
  relative viability: 0.762
PC-3 [JPC-3]; first compound 0.006325 µM
  relative viability: 0.339
PC-3 [JPC-3]; first compound 0.02 µM
  relative viability: 0.16
RERF-LC-KJ; first compound 0.0002 µM
  relative viability: 0.754
RERF-LC-KJ; first compound 0.000632 µM
  relative viability: 0.586
RERF-LC-KJ; first compound 0.002 µM
  relative viability: 0.295
RERF-LC-KJ; first compound 0.006325 µM
  relative viability: 0.264
RERF-LC-KJ; first compound 0.02 µM
  relative viability: 0.155
UMC-11; first compound 0.0002 µM
  relative viability: 0.429
UMC-11; first compound 0.000632 µM
  relative viability: 0.42
UMC-11; first compound 0.002 µM
  relative viability: 0.264
UMC-11; first compound 0.006325 µM
  relative viability: 0.21
UMC-11; first compound 0.02 µM
  relative viability: 0.171
